Source: patent US8901301B2, “Pyrrolo[2,3-]pyridine kinase inhibitors” (Plexxikon Inc., priority 2009, dated 2014)

Legend:
[1] = biological target: T1, Tec (Homo sapiens, UniProt P42680); test: Biochemical inhibitory activity, other protein kinases: Tec; details: for Kinase having IC50 of >1 μM: listing of the kinase means IC50 >1 μM; for Kinase having IC50 of <1 μM: listing of the kinase means IC50 <1 μM
T1 sequence (P42680 1-631): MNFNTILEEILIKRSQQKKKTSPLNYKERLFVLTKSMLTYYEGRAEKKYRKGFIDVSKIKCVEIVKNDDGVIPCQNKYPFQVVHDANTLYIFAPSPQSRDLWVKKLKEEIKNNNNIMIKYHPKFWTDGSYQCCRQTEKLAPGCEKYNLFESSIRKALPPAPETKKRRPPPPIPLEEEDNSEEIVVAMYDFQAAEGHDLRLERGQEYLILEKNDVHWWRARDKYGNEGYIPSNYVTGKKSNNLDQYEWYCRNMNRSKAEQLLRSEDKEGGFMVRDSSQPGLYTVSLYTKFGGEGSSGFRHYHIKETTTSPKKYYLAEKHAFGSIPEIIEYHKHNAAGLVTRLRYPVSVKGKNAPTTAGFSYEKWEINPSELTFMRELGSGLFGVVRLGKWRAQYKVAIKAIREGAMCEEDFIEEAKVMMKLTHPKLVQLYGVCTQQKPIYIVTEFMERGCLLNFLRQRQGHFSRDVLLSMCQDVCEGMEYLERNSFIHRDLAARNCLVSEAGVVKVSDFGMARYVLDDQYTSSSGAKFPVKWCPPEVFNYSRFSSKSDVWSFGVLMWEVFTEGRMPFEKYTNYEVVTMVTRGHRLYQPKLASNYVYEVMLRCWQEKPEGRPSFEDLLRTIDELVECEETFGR

[2] = biological target: Fms (Homo sapiens, UniProt P07333); test: Biochemical inhibitory activity, other protein kinases: Fms; details: listing of the kinase means IC50 >1 μM
[3] = biological target: T2, Itk (Homo sapiens, UniProt Q08881); test: Biochemical inhibitory activity, other protein kinases: Itk; details: listing of the kinase means IC50 >1 μM
T2 sequence (Q08881 1-620): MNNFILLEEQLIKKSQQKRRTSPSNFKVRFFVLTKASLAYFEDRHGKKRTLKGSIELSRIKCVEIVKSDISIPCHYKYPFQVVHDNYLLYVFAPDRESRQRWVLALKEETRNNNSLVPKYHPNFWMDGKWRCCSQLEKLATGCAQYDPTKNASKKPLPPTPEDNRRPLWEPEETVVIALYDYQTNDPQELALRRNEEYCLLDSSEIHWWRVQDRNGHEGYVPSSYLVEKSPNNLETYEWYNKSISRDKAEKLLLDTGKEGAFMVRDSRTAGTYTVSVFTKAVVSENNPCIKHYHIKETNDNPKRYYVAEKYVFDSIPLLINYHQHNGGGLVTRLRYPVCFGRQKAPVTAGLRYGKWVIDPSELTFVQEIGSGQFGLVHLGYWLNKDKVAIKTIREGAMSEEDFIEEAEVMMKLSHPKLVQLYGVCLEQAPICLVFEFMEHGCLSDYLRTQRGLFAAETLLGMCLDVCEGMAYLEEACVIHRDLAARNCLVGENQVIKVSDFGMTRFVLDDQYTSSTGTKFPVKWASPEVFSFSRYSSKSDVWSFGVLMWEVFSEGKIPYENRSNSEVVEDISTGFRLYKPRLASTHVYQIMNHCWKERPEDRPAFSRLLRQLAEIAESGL

[4] = biological target: Jnk1 (Homo sapiens, UniProt P45983); test: Biochemical inhibitory activity, other protein kinases: Jnk1; details: listing of the kinase means IC50 >1 μM
[5] = biological target: Brk (Homo sapiens, UniProt Q13882); test: Biochemical inhibitory activity, other protein kinases: Brk; details: listing of the kinase means IC50 <1 μM
[6] = biological target: Ack1 (Homo sapiens, UniProt Q07912); test: Biochemical inhibitory activity, other protein kinases: Ack1; details: listing of the kinase means IC50 <1 μM
[7] = biological target: MAPKAPK2 (Homo sapiens, UniProt P49137); test: Biochemical inhibitory activity, other protein kinases: MAPKAPK2; details: listing of the kinase means IC50 >1 μM
[8] = biological target: Flt1 (Homo sapiens, UniProt P17948); test: Biochemical inhibitory activity, other protein kinases: Flt1; details: listing of the kinase means IC50 >1 μM
[9] = biological target: TrkA (Homo sapiens, UniProt P04629); test: Biochemical inhibitory activity, other protein kinases: TrkA; details: listing of the kinase means IC50 >1 μM
[10] = biological target: mTor (Homo sapiens, UniProt P42345); test: Biochemical inhibitory activity, other protein kinases: mTor; details: listing of the kinase means IC50 >1 μM
[11] = biological target: PI3Kα (Homo sapiens, UniProt P42336); test: Biochemical inhibitory activity, other protein kinases: PI3Kα; details: listing of the kinase means IC50 >1 μM
[12] = biological target: PI3Kδ (Homo sapiens, UniProt O00329); test: Biochemical inhibitory activity, other protein kinases: PI3Kδ; details: listing of the kinase means IC50 >1 μM
[13] = biological target: PI3Kγ (Homo sapiens, UniProt P48736); test: Biochemical inhibitory activity, other protein kinases: PI3Kγ; details: listing of the kinase means IC50 >1 μM
[14] = biological target: Trk (Homo sapiens, UniProt P04629); test: Biochemical inhibitory activity, other protein kinases: Trk; details: listing of the kinase means IC50 >1 μM
Chain of Trk (P04629 33-796, species assumed): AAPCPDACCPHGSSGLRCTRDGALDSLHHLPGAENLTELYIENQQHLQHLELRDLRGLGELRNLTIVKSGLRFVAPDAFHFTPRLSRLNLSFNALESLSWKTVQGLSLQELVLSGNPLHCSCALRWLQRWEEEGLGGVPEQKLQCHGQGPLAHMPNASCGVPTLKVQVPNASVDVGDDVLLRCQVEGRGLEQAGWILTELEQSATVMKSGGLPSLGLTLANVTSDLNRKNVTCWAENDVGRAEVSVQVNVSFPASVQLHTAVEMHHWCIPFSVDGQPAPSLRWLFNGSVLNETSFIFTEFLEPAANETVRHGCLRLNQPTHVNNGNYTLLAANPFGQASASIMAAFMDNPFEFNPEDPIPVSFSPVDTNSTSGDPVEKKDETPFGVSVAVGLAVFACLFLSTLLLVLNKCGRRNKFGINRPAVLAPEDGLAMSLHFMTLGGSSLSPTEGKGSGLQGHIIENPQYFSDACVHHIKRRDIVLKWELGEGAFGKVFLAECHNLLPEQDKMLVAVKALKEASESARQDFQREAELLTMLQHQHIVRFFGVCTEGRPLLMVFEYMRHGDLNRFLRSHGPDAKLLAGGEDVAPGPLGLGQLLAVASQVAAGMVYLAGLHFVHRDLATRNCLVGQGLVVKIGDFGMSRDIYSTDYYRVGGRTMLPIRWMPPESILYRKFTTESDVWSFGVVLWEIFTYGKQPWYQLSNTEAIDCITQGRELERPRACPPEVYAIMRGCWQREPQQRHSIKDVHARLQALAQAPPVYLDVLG

Chain of Jnk1 (P45983 whole entry, species assumed): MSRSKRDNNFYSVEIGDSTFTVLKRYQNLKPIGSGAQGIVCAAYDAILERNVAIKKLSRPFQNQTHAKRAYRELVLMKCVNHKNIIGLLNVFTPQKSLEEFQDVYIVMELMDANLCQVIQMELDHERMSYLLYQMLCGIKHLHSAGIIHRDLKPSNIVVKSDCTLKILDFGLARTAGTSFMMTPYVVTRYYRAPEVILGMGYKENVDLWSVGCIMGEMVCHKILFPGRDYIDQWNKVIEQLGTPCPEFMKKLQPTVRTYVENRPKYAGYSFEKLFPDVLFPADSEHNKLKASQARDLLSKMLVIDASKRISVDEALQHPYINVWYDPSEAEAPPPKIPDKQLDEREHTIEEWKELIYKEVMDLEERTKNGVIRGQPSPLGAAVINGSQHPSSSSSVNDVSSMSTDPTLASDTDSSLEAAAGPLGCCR
Chain of MAPKAPK2 (P49137 whole entry, species assumed): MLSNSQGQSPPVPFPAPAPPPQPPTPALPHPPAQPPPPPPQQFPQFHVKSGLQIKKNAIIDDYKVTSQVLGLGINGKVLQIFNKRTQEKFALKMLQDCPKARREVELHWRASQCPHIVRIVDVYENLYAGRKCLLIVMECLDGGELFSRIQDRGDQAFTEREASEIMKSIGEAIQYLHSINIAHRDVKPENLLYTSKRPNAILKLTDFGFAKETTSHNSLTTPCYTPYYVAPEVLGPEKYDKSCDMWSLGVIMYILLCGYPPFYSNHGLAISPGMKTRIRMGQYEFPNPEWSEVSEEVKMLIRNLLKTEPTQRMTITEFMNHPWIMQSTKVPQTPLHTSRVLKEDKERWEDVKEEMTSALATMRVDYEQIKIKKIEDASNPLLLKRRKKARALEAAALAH
Chain of Fms (P07333 20-972, species assumed): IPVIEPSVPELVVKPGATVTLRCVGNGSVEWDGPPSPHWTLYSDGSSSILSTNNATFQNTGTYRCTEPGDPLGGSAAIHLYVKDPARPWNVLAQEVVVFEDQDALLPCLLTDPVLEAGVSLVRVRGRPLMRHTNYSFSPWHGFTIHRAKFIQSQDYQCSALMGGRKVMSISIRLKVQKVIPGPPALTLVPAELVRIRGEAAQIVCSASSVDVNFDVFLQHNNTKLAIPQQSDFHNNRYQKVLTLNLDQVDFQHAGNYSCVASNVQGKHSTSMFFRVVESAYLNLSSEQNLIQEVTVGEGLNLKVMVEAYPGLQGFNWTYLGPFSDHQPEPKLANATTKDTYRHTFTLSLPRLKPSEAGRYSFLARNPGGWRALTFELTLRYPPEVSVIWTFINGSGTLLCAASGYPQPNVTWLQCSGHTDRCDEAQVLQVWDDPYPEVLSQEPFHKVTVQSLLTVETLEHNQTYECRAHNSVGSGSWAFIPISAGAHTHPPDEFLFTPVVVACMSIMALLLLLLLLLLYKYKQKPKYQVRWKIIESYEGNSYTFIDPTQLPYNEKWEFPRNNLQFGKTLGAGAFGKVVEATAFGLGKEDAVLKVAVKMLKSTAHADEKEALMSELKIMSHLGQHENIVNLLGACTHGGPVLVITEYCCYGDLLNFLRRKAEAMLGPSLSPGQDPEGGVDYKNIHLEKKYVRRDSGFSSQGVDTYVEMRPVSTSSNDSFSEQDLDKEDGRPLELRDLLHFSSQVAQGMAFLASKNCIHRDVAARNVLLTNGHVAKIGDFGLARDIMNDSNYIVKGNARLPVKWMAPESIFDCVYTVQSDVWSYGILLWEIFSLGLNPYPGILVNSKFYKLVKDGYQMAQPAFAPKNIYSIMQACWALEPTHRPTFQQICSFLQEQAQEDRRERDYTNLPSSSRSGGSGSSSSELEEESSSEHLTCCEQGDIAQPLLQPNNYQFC
Chain of Brk (Q13882 whole entry, species assumed): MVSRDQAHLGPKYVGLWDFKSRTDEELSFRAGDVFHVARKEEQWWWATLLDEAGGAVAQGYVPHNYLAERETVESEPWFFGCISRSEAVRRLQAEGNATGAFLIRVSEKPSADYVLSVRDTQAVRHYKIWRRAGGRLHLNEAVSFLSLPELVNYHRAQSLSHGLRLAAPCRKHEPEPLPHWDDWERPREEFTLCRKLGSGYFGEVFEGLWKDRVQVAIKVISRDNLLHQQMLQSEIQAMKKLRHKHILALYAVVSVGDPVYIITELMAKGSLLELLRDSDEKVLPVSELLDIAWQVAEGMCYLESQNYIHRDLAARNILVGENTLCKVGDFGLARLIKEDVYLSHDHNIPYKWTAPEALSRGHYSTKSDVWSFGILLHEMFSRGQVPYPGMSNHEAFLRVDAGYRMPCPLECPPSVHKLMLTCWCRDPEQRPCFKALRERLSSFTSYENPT
Chain of TrkA (P04629 33-796, species assumed): as the sequence (P04629 33-796, species assumed) above
Chain of PI3Kα (P42336 whole entry, species assumed): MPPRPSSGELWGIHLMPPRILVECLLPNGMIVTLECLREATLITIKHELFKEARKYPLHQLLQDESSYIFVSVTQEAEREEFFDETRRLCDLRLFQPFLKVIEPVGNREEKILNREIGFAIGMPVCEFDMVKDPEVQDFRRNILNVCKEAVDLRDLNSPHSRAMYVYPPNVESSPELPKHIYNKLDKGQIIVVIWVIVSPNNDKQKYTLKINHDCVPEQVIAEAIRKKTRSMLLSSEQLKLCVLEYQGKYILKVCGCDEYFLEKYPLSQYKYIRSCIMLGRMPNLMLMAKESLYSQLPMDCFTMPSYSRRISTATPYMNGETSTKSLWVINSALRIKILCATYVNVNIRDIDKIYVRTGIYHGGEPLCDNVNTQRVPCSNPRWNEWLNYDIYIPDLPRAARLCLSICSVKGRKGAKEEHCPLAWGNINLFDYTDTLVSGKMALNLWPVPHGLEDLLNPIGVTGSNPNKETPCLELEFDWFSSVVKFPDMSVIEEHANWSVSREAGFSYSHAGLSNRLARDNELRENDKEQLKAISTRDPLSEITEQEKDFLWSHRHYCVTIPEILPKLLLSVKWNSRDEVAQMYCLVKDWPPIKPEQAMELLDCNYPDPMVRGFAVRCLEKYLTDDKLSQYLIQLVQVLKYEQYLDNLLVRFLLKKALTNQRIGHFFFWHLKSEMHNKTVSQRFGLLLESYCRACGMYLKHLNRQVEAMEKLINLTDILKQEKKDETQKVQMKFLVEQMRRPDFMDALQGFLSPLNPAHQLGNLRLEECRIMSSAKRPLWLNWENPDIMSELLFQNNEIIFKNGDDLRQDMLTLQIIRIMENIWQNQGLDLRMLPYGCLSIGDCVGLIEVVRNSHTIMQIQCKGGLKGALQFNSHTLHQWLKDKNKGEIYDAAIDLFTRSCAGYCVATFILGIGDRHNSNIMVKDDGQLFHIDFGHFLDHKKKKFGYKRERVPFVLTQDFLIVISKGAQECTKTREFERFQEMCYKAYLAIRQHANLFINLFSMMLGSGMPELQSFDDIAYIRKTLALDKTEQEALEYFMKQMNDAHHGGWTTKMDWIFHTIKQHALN
Chain of PI3Kα (P27986 whole entry partner, species assumed): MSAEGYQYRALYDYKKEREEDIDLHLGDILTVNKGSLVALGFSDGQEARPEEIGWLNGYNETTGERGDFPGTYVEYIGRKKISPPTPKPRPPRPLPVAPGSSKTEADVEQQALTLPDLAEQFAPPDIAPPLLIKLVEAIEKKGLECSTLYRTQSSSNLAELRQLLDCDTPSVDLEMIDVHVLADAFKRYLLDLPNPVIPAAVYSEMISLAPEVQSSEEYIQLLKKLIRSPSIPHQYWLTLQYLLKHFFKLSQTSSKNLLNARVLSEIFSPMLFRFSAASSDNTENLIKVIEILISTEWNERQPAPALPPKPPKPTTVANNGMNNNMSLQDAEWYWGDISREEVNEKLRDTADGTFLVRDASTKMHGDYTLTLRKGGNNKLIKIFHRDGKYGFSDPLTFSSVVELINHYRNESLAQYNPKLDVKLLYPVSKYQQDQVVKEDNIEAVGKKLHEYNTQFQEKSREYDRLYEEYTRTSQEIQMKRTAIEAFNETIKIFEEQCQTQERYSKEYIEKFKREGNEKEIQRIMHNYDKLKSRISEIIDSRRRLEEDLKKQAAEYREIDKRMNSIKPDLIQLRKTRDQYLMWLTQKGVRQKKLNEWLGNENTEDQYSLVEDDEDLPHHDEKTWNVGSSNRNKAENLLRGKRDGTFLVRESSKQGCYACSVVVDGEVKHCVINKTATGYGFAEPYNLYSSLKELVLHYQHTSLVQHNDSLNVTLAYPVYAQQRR

N#Cc1cnc2[nH]cc(C(=O)c3c(F)ccc(NS(=O)(=O)c4cccc(F)c4)c3F)c2c1 [Compound P-0005, N-[3-(5-cyano-1H-pyrrolo[2,3-b]pyridine-3-carbonyl)-2,4-difluoro-phenyl]-3-fluoro-benzenesulfonamide]
Kinase having IC50 of >1 μM [1]: Tec
Kinase having IC50 of >1 μM [2]: Fms
Kinase having IC50 of >1 μM [3]: Itk
Kinase having IC50 of >1 μM [4]: Jnk1

CCCS(=O)(=O)Nc1ccc(F)c(C(=O)c2c[nH]c3ncc(C#N)cc23)c1F [Compound P-0002, propane-1-sulfonic acid [3-(5-cyano-1H-pyrrolo[2,3-b]pyridine-3-carbonyl)-2,4-difluoro-phenyl]-amide]
Kinase having IC50 of <1 μM [5]: Brk
Kinase having IC50 of >1 μM [1]: Tec
Kinase having IC50 of <1 μM [6]: Ack1
Kinase having IC50 of >1 μM [2]: Fms
Kinase having IC50 of >1 μM [3]: Itk
Kinase having IC50 of >1 μM [7]: MAPKAPK2
Kinase having IC50 of >1 μM [8]: Flt1
Kinase having IC50 of >1 μM [9]: TrkA

CCCS(=O)(=O)Nc1ccc(F)c(C(=O)c2c[nH]c3ncc(-c4cnc(OC)nc4)cc23)c1F [Compound P-0001, propane-1-sulfonic acid {2,4-difluoro-3-[5-(2-methoxy-pyrimidin-5-yl)-1H-pyrrolo[2,3-b]pyridine-3-carbonyl]-phenyl}-amide]
Kinase having IC50 of <1 μM [5]: Brk
Kinase having IC50 of <1 μM [1]: Tec
Kinase having IC50 of >1 μM [2]: Fms
Kinase having IC50 of >1 μM [3]: Itk
Kinase having IC50 of >1 μM [4]: Jnk1
Kinase having IC50 of >1 μM [7]: MAPKAPK2
Kinase having IC50 of >1 μM [10]: mTor
Kinase having IC50 of >1 μM [11]: PI3Kα
Kinase having IC50 of >1 μM [12]: PI3Kδ
Kinase having IC50 of >1 μM [13]: PI3Kγ
Kinase having IC50 of >1 μM [14]: Trk

CN(C)S(=O)(=O)Nc1ccc(F)c(C(=O)c2c[nH]c3ncc(C#N)cc23)c1F [Compound P-0007, N,N-dimethylamino-sulfonic acid [3-(5-cyano-1H-pyrrolo[2,3-b]pyridine-3-carbonyl)-2,4-difluoro-phenyl]-amide]
Kinase having IC50 of >1 μM [1]: Tec
Kinase having IC50 of >1 μM [2]: Fms
Kinase having IC50 of >1 μM [3]: Itk
Kinase having IC50 of >1 μM [4]: Jnk1
Kinase having IC50 of >1 μM [7]: MAPKAPK2

N#Cc1cnc2[nH]cc(C(=O)c3c(F)ccc(NS(=O)(=O)N4CCCC4)c3F)c2c1 [Compound P-0006, pyrrolidine-1-sulfonic acid [3-(5-cyano-1H-pyrrolo[2,3-b]pyridine-3-carbonyl)-2,4-difluoro-phenyl]-amide]
Kinase having IC50 of <1 μM [1]: Tec
Kinase having IC50 of >1 μM [2]: Fms
Kinase having IC50 of >1 μM [7]: MAPKAPK2

CCCS(=O)(=O)Nc1cccc(C(=O)c2c[nH]c3ncc(C#N)cc23)c1F [Compound P-0003, propane-1-sulfonic acid [3-(5-cyano-1H-pyrrolo[2,3-b]pyridine-3-carbonyl)-2-fluoro-phenyl]-amide]
Kinase having IC50 of >1 μM [2]: Fms
Kinase having IC50 of >1 μM [7]: MAPKAPK2
Kinase having IC50 of >1 μM [9]: TrkA

N#Cc1cnc2[nH]cc(C(=O)c3c(F)ccc(NS(=O)(=O)c4cc(F)ccc4F)c3F)c2c1 [Compound P-0004, N-[3-(5-cyano-1H-pyrrolo[2,3-b]pyridine-3-carbonyl)-2,4-difluoro-phenyl]-2,5-difluoro-benzenesulfonamide]
Kinase having IC50 of >1 μM [1]: Tec
Kinase having IC50 of >1 μM [2]: Fms
Kinase having IC50 of >1 μM [3]: Itk
Kinase having IC50 of >1 μM [4]: Jnk1
